Experimental data taken from patent US12265082B2, “Detecting microbial infection in wounds” (SYNOVO GMBH, priority 2016, dated 2025).
Residues, ends and D or L forms follow the SMILES beside them. *: point of attachment. X5 = 4‑(N-piperazino)phenyl‑bis(4-dimethylaminophenyl)carbenium, CN(C)c1ccc([C+](c2ccc(N(C)C)cc2)c2ccc(N3CCN(*)CC3)cc2)cc1; X9 = CN(C)c1ccc([C+](c2ccc(N(C)C)cc2)c2ccc(N3CCN(*)CC3)cc2)cc1

How the values were obtained:
[1] = biological target: pancreatic porcine elastase (Sus scrofa, UniProt P00772); assay: Enzyme hydrolysis of substrates by pancreatic porcine elastase, cleavage products by ion trap MS; conditions: mass peak at m/z=484
Chain of pancreatic porcine elastase (P00772 27-266): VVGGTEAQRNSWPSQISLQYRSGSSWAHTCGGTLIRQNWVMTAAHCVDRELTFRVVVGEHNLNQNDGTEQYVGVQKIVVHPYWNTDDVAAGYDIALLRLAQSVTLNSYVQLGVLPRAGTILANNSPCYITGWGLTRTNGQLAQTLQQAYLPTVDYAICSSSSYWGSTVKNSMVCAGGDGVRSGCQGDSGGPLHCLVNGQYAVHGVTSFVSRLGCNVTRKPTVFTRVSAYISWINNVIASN
Description: (§1) Appearance of the assay mixture was either a clear solution, a suspension or a gel, depending on the properties of the enzyme substrate. Incubation was performed at 37° C. After 3 and 20 h, 10 μL samples were taken and the enzyme was denatured by addition of 10 μL MeOH to each sample. After mixing and incubation at −20° C. for 20 min the samples were centrifuged at 13.000 rpm for 10 min. Each assay included a control without enzyme, containing 1 mg/mL to 5 mg/mL substrate and analysis was performed in the same way and in parallel to the enzyme-containing assays. The supernatant after MeOH precipitation was analyzed via ion trap MS, either [M+H]+ or [M−H]−, depending on the properties of the molecule and the expected cleavage products.

[2] = biological target: T1, human elastase from leucocytes (Homo sapiens, UniProt P08246); assay: Enzyme hydrolysis of substrates by human elastase from leucocytes, cleavage products by ion trap MS; conditions: mass peak at m/z=484
T1 sequence (P08246 30-267): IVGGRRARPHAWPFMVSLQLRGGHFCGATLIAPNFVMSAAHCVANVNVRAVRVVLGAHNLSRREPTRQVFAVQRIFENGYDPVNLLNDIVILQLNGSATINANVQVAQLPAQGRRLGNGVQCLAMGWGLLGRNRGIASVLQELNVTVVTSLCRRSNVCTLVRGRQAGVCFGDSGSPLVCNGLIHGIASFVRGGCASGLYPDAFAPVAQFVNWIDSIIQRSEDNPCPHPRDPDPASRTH
Description: as §1

MPO = biological target: T2, MPO (Homo sapiens, UniProt P05164); assay: Reaction of methoxy aniline derivative as substrate of MPO; type: biochemical
T2 sequence (P05164 49-745): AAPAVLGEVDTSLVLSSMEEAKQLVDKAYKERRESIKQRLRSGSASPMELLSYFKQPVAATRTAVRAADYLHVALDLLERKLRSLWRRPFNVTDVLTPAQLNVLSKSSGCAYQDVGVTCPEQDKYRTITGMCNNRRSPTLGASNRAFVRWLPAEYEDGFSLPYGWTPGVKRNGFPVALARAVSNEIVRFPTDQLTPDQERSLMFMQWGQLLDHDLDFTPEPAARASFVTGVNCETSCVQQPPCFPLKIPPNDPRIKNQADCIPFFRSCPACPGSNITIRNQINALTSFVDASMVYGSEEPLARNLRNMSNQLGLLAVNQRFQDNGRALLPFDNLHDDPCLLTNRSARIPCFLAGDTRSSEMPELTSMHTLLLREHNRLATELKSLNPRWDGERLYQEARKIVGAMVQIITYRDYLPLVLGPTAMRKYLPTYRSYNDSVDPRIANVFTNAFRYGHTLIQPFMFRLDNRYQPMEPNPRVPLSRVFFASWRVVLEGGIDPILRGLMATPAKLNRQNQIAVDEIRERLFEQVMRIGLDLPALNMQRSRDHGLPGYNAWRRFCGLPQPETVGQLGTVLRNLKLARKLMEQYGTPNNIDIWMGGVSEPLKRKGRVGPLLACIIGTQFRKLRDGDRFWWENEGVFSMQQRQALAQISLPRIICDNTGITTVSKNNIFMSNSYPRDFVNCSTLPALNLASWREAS
Description: The ideal ratio by mass is circa 2:8 aniline: product of example 10. The most efficient reaction occurs when the divalent anion is sulphuric acid, however, disulfonic substituted aromatic systems and phosphoric acid can also be used with diminished rate. HC1 provides only limited reaction. On reaction, one of the products of MPO oxidation appears to be the dimer of the two aniline components (see FIG. 13).

elastase = assay: Treatment with elastase, released dye fragment found by MS-analysis (synthesis examples); type: biochemical; conditions: elastase species not stated
[3] = Color change of allyl sulfophthalein dyes with pH, base or ammonia; type: physicochemical

Molecule	release of dye fragment on treatment with elastase (elastase)	color change with pH / base / ammonia [3]	further results
4-([4-{H-Ala-Ala-Pro-Val-Ala}amido N-piperazino]phenyl)-bis-(4-dimethyl-aminophenyl)-carbenium ion polyacrylamide (H-AAPVA-X5; also: polyacrylamide) [Example 71e]			release of A-CV on treatment with porcine elastase [1]: releases A-CV; release of A-CV on treatment with human elastase [2]: releases A-CV
CCCCCCCCCCCCC(O)CNc1cc(OC)c(NC(=O)c2ccccc2)cc1OC (racemic) [Example 10, N-(1-[2-Hydroxy]Tetradecanyl) Fast Blue RR (N-4-(1,3-Dimethoxy-2-N-Benzoylamidophenyl)-N′-Rac-(2-Hydroxy-n-Tetradecyl)-Amine)]			reaction as substrate of MPO (MPO): can be a direct substrate of MPO
CC(N)C(=O)NC(C)C(=O)N1CCCC1C(=O)NC(C(=O)NC(C)C(=O)N1CCN(c2ccc([C+](c3ccc(N(C)C)cc3)c3ccc(N(C)C)cc3)cc2)CC1)C(C)C (stereo not drawn) [Example 71, 4-([4-{H-Ala-Ala-Pro-Val-Ala}[SEQ ID NO: 28]amido N-piperazino]phenyl)-bis-(4-dimethyl-aminophenyl)-carbenium ion] (H-AAPVA-X9; configuration not given here)	released A-CV		
C=CCOc1ccc(C2(c3ccc(O)c(Cl)c3)OS(=O)(=O)c3ccccc32)cc1Cl (centres unmarked) [Example 95, O-Allyl Chlorophenol Red]		no longer changed color with pH	
Bis-(4-dimethylaminophenyl)-(4-[4-N-{6-N-valinoyl)aminohexanoyl}]piperazinophenyl)-carbenium ion [Example 72]	releases no Ahx-CV		
C-Allyl Bromophenol Red [Example 97]		color changed with ammonia to violet	
C-Allyl Chlorophenol Red [Example 96]		changed color when treated with base to deep violet	
CMC 9M31F-AAPF-RBB [Example 55]	release of the dye		
CMC 9M31F-AAPFA-RBB [Example 54]	release of the dye		
Fmoc-AAPF-aminoethyl-(Remazol Black B)-(N′-acetyl)-ethylamide [Example 53]	yield the mono-acetylated-Remazol Black B-amino derivative		
